In US20120035221A1, “Method of Fungal Pathogen Control in Grass or Turf” (priority 2004, published 2012):

Legend:
grass = experiment: Grass pot trial, dry weight and visual vigor under powdery mildew (Example 3); assay type: in vivo; details: 8 WAT, 1 to 5 scale, powdery mildew infestation, in words
Description: Six-inch (15-cm) diameter pots were filled to the rim with ProMix® BX potting soil and leveled off. Grass seed (0.5 g) was distributed evenly over the whole mix surface. The seed was watered in very gently. The grass was fertilized once 17 days later with Peters 20-10-20 at 100 ppm. The first cut was done on 11 days later; the grass was allowed to re-grow and cut 26 days later. Cutting was done at 2 in. (5 cm) height, using a round plastic cylinder that fit over the pot. The cut was made with hedge sheers and finished with scissors. Treatments were applied one day later using a volume of 20 ml per pot, followed with 117 ml of water/pot. The grass clippings were harvested an.d dried for dry weight determination 2 weeks after treatment (“WAT”) and 4 WAT. The grass was rated visually for vigor 8 WAT, using a 1 to 5 scale, before harvesting at the soil line. Dry weight and vigor data were subjected to analysis of variance (Fisher's Protected LSD, P=0.05).
The grass had germinated well within 30 days. Powdery mildew was noticed on some plants at 43 days after seeding, and became widespread in the plot. The powdery mildew coating appeared to grow more densely on the untreated plants. […] The invasion of the powdery mildew prevented the assessment of imidacloprid in the absence of pest pressure but it was serendipitously discovered that imidacloprid could have an effect on disease resistance in turf.

Pythium aphandermatum = experiment: Pythium infection of bentgrass 'Crenshaw' turf flats (Example 2); assay type: in vivo, P. aphanidermatum; details: imidacloprid alone 481 g/Ha
Protocol: Bentgrass var. ‘Crenshaw’ was seeded in 10 in.×12 in. (ca. 25 cm×30 cm) peat flats containing steam sterilized 80/20 greens mix. Flats were watered daily with an overhead misting system. Plots were fertilized on 26 days later with 200 ml of a 288 ppm 20-20-20 Regal Green fertilizer solution. Treatments were applied with a CO2 backpack sprayer at 2.0 gal./1000 ft^2 (i.e., 81.5 liters/1000 m^2), with a single 8003E nozzle. lmidacloprid (481 g/Ha) was applied the same day and mancozeb fungicide was applied one week later. Two doses of each fungicide were tested. Plots were inoculated with Pythium aphandermatum 2 days after the fungicides were applied by placing two 1-in (2.5-cm) pieces of infested fescue leaves on each flat. Results are presented in Table 2 (where B+a number represents days after application of the herbicide component).

Curvularia [1] = experiment: Disease infection of turf flats treated with Merit 75 WP (Example 5); assay type: in vivo; details: for percent infection (Curvularia): Kentucky bluegrass
Protocol: Four sets of twenty-four 10 in.×12 in. (25 cm×30 cm) flats were filled with sterilized sand and each set was seeded with either Kentucky bluegrass, Crenshaw L-93 bentgrass, bermudagrass, or K-31 tall fescue. Each flat was fertilized weekly with 20-20-20 soluble fertilizer at 0.144 g per 200 ml of water (equivalent to 4 lbs/year/acre). The trial was replicated once.
Twelve flats in each set were treated with Merit 75 WP equivalent to 8.6 oz/acre per 80 gal. (ca. […] per 100 liter) of water (spray application) for each turf variety and twelve flats remained untreated. Replicate 1 was treated 25 days after seeding and Replicate 2 was treated 28 days after seeding. Disease outbreaks began approximately the time of treatment. Assessments of the infection percentage were done at 13 and 25 days after treatment. […] The percent disease infection at the first and second assessments in the first trial was 22 and 26%, respectively, while the percent infection in the imidacloprid treated flats was 1 and 8% at the first and second assessment dates, respectively. In the second trial, disease pressure was lower, but the untreated flats had 3 and 8% infection at the first and second assessment dates, whereas the imidacloprid treated flats had 0.5 and 2% at the two assessment dates.

Curvularia [2] = experiment: Curvularia on bermudagrass 'TifEagle', golf course field trial (Example 8); assay type: in vivo; details: for % turf infected with disease (Curvularia): imidacloprid 0.4 lb/A single application, fungicide programs every two weeks
Protocol: Established bermudagrass (cv. ‘TifEagle’) on a golf course in Florida was treated in late spring with imidacloprid at 0.4 lb/A (i.e., 0.45 kg/Ha). For comparison, two different fungicide spray programs were applied to nearby plots. The two fungicide spray programs were (1) fosetyl+iprodione at (4 oz.+4 oz.) per 1000 ft^2 [(1.2 g+1.2 g) per m^2] alternated with fosetyl+trifloxystrobin at (4 oz.+0.15 oz.) per 1000 ft^2 [(1.2 g+46 mg) per m^2], and (2) fosetyl+iprodione at (4 oz.+4 oz.) per 1000 ft^2 [(1.2 g+1.2 g) per m^2] alternated with flutolanil at 2.2 oz product/1000 ft^2 (0.67 g) per m^2). The fungicide applications were made every two weeks. In comparison, the imidacloprid-treated plots received only a single application of active ingredient.
At the time of treatment, Curvularia disease was just beginning to develop (i.e., the mean percent infection in all plots was 3% of the turf cover). The spread of the disease was monitored weekly for twelve weeks, and turf quality, measured on a 0 to 9 scale (0=dead turf and 9=perfect quality). […] Effects of the various treatments on disease incidence are described in Table 6 (where A+a number represents days after application of imidacloprid). Data are expressed as % turf infected with disease.

[3] = test system: Sclerotinia homoeocarpa (Dollar Spot); experiment: Dollar Spot infection of bentgrass 'Crenshaw' turf flats (Example 1); assay type: in vivo; details: for % Dollar Spot: imidacloprid alone 481 g/Ha
Protocol: Bentgrass var. ‘Crenshaw’ was seeded in 10 in.×12 in. (25 cm×30 cm) peat flats containing steam sterilized 80/20 greens mix. Flats were watered daily with an overhead misting system. Plots were fertilized with 200 ml of a 288 ppm 20-20-20 Regal Green fertilizer solution 23 days later. lmidacloprid (481 g/Ha) was applied according to the Merit® insecticide label the same day that fertilizer was applied. Fungicide treatments were applied 7 days later with a CO2 backpack sprayer at 2.0 gal./1000 ft^2 (i.e., 81.5 liters/1000 m^2) with a single 8003E nozzle. Two doses of each fungicide were tested. Plots were inoculated with Sclerotinia homoeocarpa (Dollar Spot) 2 days after the fungicides were applied by placing two 1-in. (2.5-cm) pieces of infested fescue leaves on each flat. Results are presented in Table 1 (where B+a number represents days after application of the herbicide component).

Pythium aphanedermatum = experiment: Pythium infection of bentgrass sod flats (Example 7); assay type: in vivo; details: for % Pythium: imidacloprid alone 481 g/Ha
Protocol: Bentgrass sod var. ‘Crenshaw’ was cut and placed in 6″×7″ (15 cm×17.5 cm) peat flats containing steam-sterilized 80/20 greens mix during the spring. To create conditions favorable for the development of Pythium, the flats were watered daily with an overhead misting system to provide conditions favorable to the development on disease. In addition, plots were fertilized weekly with 100 ml of a 244 ppm 20-20-20 Regal Green fertilizer solution. Imidacloprid at 481 g/Ha was applied four days after being placed in the flats. Fungicides were applied ten days after application of imidacloprid with a CO2 backpack sprayer at 2.0 gal. /1000 ft^2 (i.e., 81.5 liters/1000 m^2) using a single 8003E nozzle. Plots were inoculated with 2 one-inch […] sections of Pythium aphanedermatum-infested fescue leaves three days after application of the fungicides, and the percent infection in the plots was measured for the next 20 days. Results are presented in Table 5 (where A+a number represents days after application of imidacloprid).

powdery mildew = experiment: Greenhouse trial, powdery mildew severity on Kentucky bluegrass (Example 4); assay type: in vivo, Erysiphe graminis; details: for Powdery mildew rating: 1 = best (no disease) to 9 = dead
Rhizoctonia solani = experiment: Brown Patch infection of bentgrass 'Crenshaw' turf flats (Example 6); assay type: in vivo; details: for % Brown Patch infection: imidacloprid alone 481 g/Ha
Protocol: Bentgrass var. ‘Crenshaw’ was seeded in 10 in.×12 in. (25 cm×30 cm) peat flats containing steam sterilized 80/20 greens mix. Flats were watered daily with an overhead misting system. Plots were fertilized on 11/20 with 200 ml of a 288 ppm 20-20-20 Regal Green fertilizer solution. Treatments were applied with a CO2 backpack sprayer at 2.0 gal./1000 ft^2 (i.e., 81.5 liters/1000 m^2) and a single 8003E nozzle. Imidacloprid was applied on 16 days after seeding and fungicides applied 21 days after seeding and 35 days after seeding. Plots were inoculated 18 days after seeding with 0.25 g of fescue seed infected with Rhizoctonia solani. Results are presented in Table 4 (where B+a number represents days after application of the herbicide component).

With `O=[N+]([O-])NC1=NCCN1Cc1ccc(Cl)nc1` [imidacloprid] the visual vigor ratings (grass) was “visual vigor ratings indicate a benefit from the imidacloprid treatments”, the “% Pythium” value (Pythium aphandermatum; B + 6) was 11.7% and the “% Pythium” value (Pythium aphandermatum; B + 8) was 20.0%. For the same compound, the “% Pythium” value (Pythium aphandermatum; B + 14) was 36.7%, the “percent infection (Curvularia)” value (Curvularia [1]; first trial, first assessment (13 days after treatment), untreated 22%) was 1% and the “percent infection (Curvularia)” value (Curvularia [1]; first trial, second assessment (25 days after treatment), untreated 26%) was 8%. The “percent infection (Curvularia)” value (Curvularia [1]; second trial, first assessment, untreated 3%) was 0.5%, the “percent infection (Curvularia)” value (Curvularia [1]; second trial, second assessment, untreated 8%) was 2% and the “control of the other diseases on the other turf varieties” value (Curvularia [1]; bentgrass, bermudagrass, tall fescue, either trial, in words) was “did not provide control of the other diseases”. For the same compound, the “control of Curvularia on the Kentucky bluegrass” value (Curvularia [1]; both replicates, in words) was “good control of Curvularia”, the “% turf infected with disease (Curvularia)” value (shortened to “% turf infected with disease”) (Curvularia [2]; A + 1) was 1% and the “% turf infected with disease” value (Curvularia [2]; A + 8) was 1%. For the same compound, the “% turf infected with disease” value (Curvularia [2]; A + 15) was 1%, the “% turf infected with disease” value (Curvularia [2]; A + 22) was 0% and the “% turf infected with disease” value (Curvularia [2]; A + 29) was 0%. The “% turf infected with disease” value (Curvularia [2]; A + 37) was 0%, the “% turf infected with disease” value (Curvularia [2]; A + 43) was 0% and the “% turf infected with disease” value (Curvularia [2]; A + 51) was 16%. For the same compound, the “% turf infected with disease” value (Curvularia [2]; A + 58) was 21%, the “% turf infected with disease” value (Curvularia [2]; A + 66) was 54% and the “% turf infected with disease” value (Curvularia [2]; A + 72) was 30%. The “% turf infected with disease” value (Curvularia [2]; A + 79) was 34%, the “% turf infected with disease” value (Curvularia [2]; A + 86) was 38% and the “% turf infected with disease” value (Curvularia [2]; A + 94) was 16%. The “development of Curvularia disease incidence compared with the other plots” value (Curvularia [2]; after 8 WAT to end of trial, in words) was “increased at a much slower rate than did the untreated control”, the “% Dollar Spot” value ([3]; B + 7) was 16.7% and the “% Dollar Spot” value ([3]; B + 10) was 28.3%. For the same compound, the “% Dollar Spot” value ([3]; B + 13) was 35.0%, the “% Dollar Spot” value ([3]; B + 17) was 38.3% and the “% Dollar Spot” value ([3]; B + 21) was 41.7%. The “% Dollar Spot” value ([3]; B + 24) was 48.3%, the “effect of imidacloprid alone on incidence of disease (Dollar Spot)” value ([3]; imidacloprid alone, in words) was “no affect on incidence of disease” and the “% Pythium” value (Pythium aphanedermatum; A + 8) was 17.5%. The “% Pythium” value (Pythium aphanedermatum; A + 11) was 32.5%, the “% Pythium” value (Pythium aphanedermatum; A + 15) was 40.0% and the “% Pythium” value (Pythium aphanedermatum; A + 18) was 38.8%. For the same compound, the “% Pythium” value (Pythium aphanedermatum; A + 22) was 25.0%, the “% Pythium” value (Pythium aphanedermatum; A + 28) was 12.0% and the “Pythium in plots treated with imidacloprid alone versus untreated plots” value (Pythium aphanedermatum; from 11 days after treatment on, in words) was “much less Pythium than did the untreated plots”. It also gave a Powdery mildew rating (powdery mildew; 2 Weeks after treatment, 0.25 lbs/A (0.28 kg/Ha)) of 3.4, a Powdery mildew rating (powdery mildew; 2 Weeks after treatment, 0.4 lbs/A (0.45 kg/Ha)) of 3.4 and a Powdery mildew rating (powdery mildew; 2 Weeks after treatment, 1.0 lbs/A (1.12 kg/Ha)) of 3.4. The “disease severity rating (powdery mildew)” value (powdery mildew; 6 WAT evaluation, treatments of imidacloprid, untreated 4.2, 1 to 9 scale) was 3.1, the Powdery mildew rating (powdery mildew; 6 Weeks after treatment, 0.25 lbs/A (0.28 kg/Ha)) was 3.2 and the Powdery mildew rating (powdery mildew; 6 Weeks after treatment, 0.4 lbs/A (0.45 kg/Ha)) was 3.1. For the same compound, the Powdery mildew rating (powdery mildew; 6 Weeks after treatment, 1.0 lbs/A (1.12 kg/Ha)) was 3.1, the “% Brown Patch infection” value (Rhizoctonia solani; B + 6) was 53.3% and the “% Brown Patch infection” value (Rhizoctonia solani; B + 8) was 73.3%. For the same compound, the “% Brown Patch infection” value (Rhizoctonia solani; B + 10) was 80.0% and the “effect of imidacloprid alone on the disease (Brown Patch)” value (Rhizoctonia solani; in words) was “no effect on the disease”.
